Laboratory results published in the supplement of paper PMC10307832.

Key:
Assay in all cases: relative viability (nuclei count vs DMSO), 5 days (fraction); higher = more cells survive
[1] = compound: Cc1ccc(C(=O)Nc2ccc(CN3CCN(C)CC3)c(C(F)(F)F)c2)cc1C#Cc1cnc2cccnn12 [Ponatinib] + COc1cccc2cc(-c3nc([C@H]4CC[C@H](C(=O)O)CC4)n4ncnc(N)c34)[nH]c12 [OSI-027] (partner 0.5 µM)
Summary of the method: (§1)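 One day after seeding in 1536-well plates, lung cancer cell lines were dosed by pin tool. Dosing was either single-drug or a fixed anchor-drug dose plus five library-drug doses (not always all listed) in √10 steps. After 5 days, nuclei were stained in one fix-and-stain step and counted on 4× images, and relative viability is the nuclei count of treated wells over that of vehicle wells, given as the median of duplicate plates.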

[2] = compound: Cc1ccc(C(=O)Nc2ccc(CN3CCN(C)CC3)c(C(F)(F)F)c2)cc1C#Cc1cnc2cccnn12 [Ponatinib] + CS(=O)(=O)N1CCN(Cc2cc3nc(-c4cccc5[nH]ncc45)nc(N4CCOCC4)c3s2)CC1 [Pictilisib] (partner 1 µM)
Summary of the method: as §1

[3] = compound: Cc1ccc(Nc2nccc(N(C)c3ccc4c(C)n(C)nc4c3)n2)cc1S(N)(=O)=O [Pazopanib] + CS(=O)(=O)CCNCc1ccc(-c2ccc3ncnc(Nc4ccc(OCc5cccc(F)c5)c(Cl)c4)c3c2)o1 [Lapatinib] (partner 2 µM)
Summary of the method: as §1

[4] = compound: Cc1ccc(Nc2nccc(N(C)c3ccc4c(C)n(C)nc4c3)n2)cc1S(N)(=O)=O [Pazopanib] + Cc1nc(Nc2ncc(C(=O)Nc3c(C)cccc3Cl)s2)cc(N2CCN(CCO)CC2)n1 [Dasatinib] (partner 0.075 µM)
Summary of the method: as §1

Cell Line | relative viability ([1]; first compound 0.002 µM) | relative viability ([1]; first compound 0.006325 µM) | relative viability ([1]; first compound 0.06325 µM) | relative viability ([1]; first compound 0.2 µM) | relative viability ([2]; first compound 0.002 µM) | relative viability ([2]; first compound 0.006325 µM) | relative viability ([2]; first compound 0.06325 µM) | relative viability ([2]; first compound 0.2 µM) | relative viability ([3]; first compound 0.01 µM) | relative viability ([3]; first compound 0.03162 µM) | relative viability ([3]; first compound 0.1 µM) | relative viability ([3]; first compound 0.3162 µM) | relative viability ([3]; first compound 1 µM) | relative viability ([4]; first compound 0.03162 µM) | relative viability ([4]; first compound 0.1 µM) | relative viability ([4]; first compound 0.3162 µM) | relative viability ([4]; first compound 1 µM) | relative viability ([4]; first compound 0.01 µM)
NCI-H1944 | 0.387 | 0.43 | 0.44 | 0.394 | 0.319 | 0.407 | 0.403 | 0.374 | 0.561 | 0.84 | 0.949 | 0.923 | 0.953 | 0.226 | 0.226 | 0.237 | 0.247 | 
NCI-H596 | 0.653 | 0.619 | 0.516 | 0.392 | 0.354 | 0.401 | 0.36 | 0.374 | 0.931 | 1.03 | 1.03 | 0.981 | 1.17 | 0.617 | 0.454 | 0.6 | 0.575 | 
NCI-H520 | 0.273 | 0.244 | 0.203 | 0.2 | 0.253 | 0.248 | 0.259 | 0.249 |  | 0.96 | 0.766 | 0.859 | 0.921 | 0.183 | 0.213 | 0.145 | 0.25 | 0.142
EKVX | 0.66 | 0.729 | 0.829 | 0.706 | 0.534 | 0.5 | 0.625 | 0.488 | 0.183 | 0.213 | 0.231 | 0.344 | 0.297 | 0.53 | 0.54 | 0.592 | 0.601 | 0.63
SK-MES-1 | 0.566 | 0.653 | 0.717 | 0.537 | 0.392 | 0.409 | 0.569 | 0.48 | 0.43 | 0.472 | 0.508 | 0.491 | 0.58 | 0.34 | 0.414 | 0.474 | 0.383 | 0.361
EPLC-272H | 0.283 | 0.278 | 0.299 | 0.268 | 0.29 | 0.373 | 0.342 | 0.335 | 0.638 | 0.797 | 1.01 | 1.14 | 0.802 | 0.321 | 0.369 | 0.376 | 0.251 | 
NCI-H1563 | 0.764 | 0.711 | 0.687 | 0.692 | 0.546 | 0.601 | 0.586 | 0.599 | 0.75 | 1 | 0.997 | 1.09 | 1.16 | 0.451 | 0.471 | 0.485 | 0.5 | 0.473
NCI-H1793 | 0.281 | 0.256 | 0.273 | 0.175 | 0.335 | 0.344 | 0.206 | 0.356 |  | 0.705 | 0.525 | 0.755 | 0.852 | 0.357 | 0.412 | 0.372 | 0.533 | 
NCI-H2126 | 0.779 | 0.818 | 0.845 | 0.563 | 0.513 | 0.504 | 0.587 | 0.617 | 0.611 | 0.713 | 0.81 | 0.715 | 0.821 | 0.528 | 0.607 | 0.594 | 0.615 | 0.528
